Results on four molecules are retold here after US20080214558A1, “PYRIMIDINE-2,4-DIAMINE DERIVATIVES AND THEIR USE AS JAK2 KINASE INHIBITORS” (SUPERGEN, INC., priority 2007, published 2008).

For assay [1], the target named is T1, JAK2 kinase (Homo sapiens, UniProt O60674). Kind of assay: JAK2 kinase inhibition assay (Promega Kinase-Glo). It counts as biochemical. The conditions noted are these: read-out: IC50 against JAK2 kinase (Promega Kinase-Glo assay). The source says:
One illustrative manner in which JAK2 kinase activity can be determined is by quantifying the amount of ATP remaining in solution after an in vitro JAK2 kinase reaction, such as the Kinase-Glo Assay Kit (Promega, Inc., Madison, Wis.). The amount of ATP remaining in the solution after the kinase reaction serves as a substrate for the luciferase to catalyze luciferin to oxyluciferin plus one photon of light. Thus, the luminescent signal read by the Luminoskan Ascent Instrument (Thermo Electron Corp., Milford, Mass.) correlates with the amount of ATP present after the kinase reaction and inversely correlates with the amount of kinase activity. This assay is efficient at determining the IC50 values of kinase inhibitors against the JAK2 kinase. These assays are set up in duplicate 50 ul volumes in white, flat bottom 96 well plates. Inhibitors are added to the solution of 1× kinase buffer, 6 uM ATP, 62.5 uM JAK2-specific substrate, 30 ng of active JAK2 enzyme, and water in serial dilutions ranging from micromolar to nanomolar concentrations. This solution is incubated at 30 degrees Celsius at 360 rpm for two hours. Following the incubation, 50 ul of Kinase-Glo reagent is added to each well, including all positive and negative control wells, and incubated at room temperature for 15 minutes. […] The IC50 values can then be calculated for each inhibitor tested.
IC50 values against JAK2 kinase (using the Promega Kinase-Glo assay) were measured for Compound Nos. 1-4, 1-7, 1-11 and 1-17.
In general terms: Kinase-Glo reads ATP consumption through a luciferase reaction.

A further assay addresses T2, JAK2 WT (Homo sapiens, UniProt O60674).
T2 construct: These enzymes include both the JH1 and JH2 homology regions of the protein; purchased Invitrogen Corporation (SelectScreen assay service, Carlsbad, Calif.)
The experiment in a line: Invitrogen SelectScreen profiling, wild-type JAK2. As to conditions: read-out: IC50 against wild-type JAK2 (SelectScreen). Type of assay: biochemical. The source says:
(§1) The JAK2 V617F mutant isoform has recently come into focus for its role in neoplastic transformation. Thus, compounds may also be testing using the SelectScreen™ assay service (Invitrogen Corporation, Carlsbad, Calif.), which includes both wild-type and V617F mutant isoforms of JAK2. These enzymes include both the JH1 and JH2 homology regions of the protein, and differ only at amino acid 617.

In assay [2] the test system is STAT5-phospho-Y694 in HEL cells expressing the V617F mutant of JAK2. The experiment in a line: Western blot of STAT5 phosphorylation in HEL cells expressing JAK2 V617F. Type of assay: cell-based. The conditions noted are these: Homo sapiens, 24 hours, Western blot densitometry, read-out: EC50 for reduction of STAT5 phosphorylation. How it is done: (§2) In order to detect specific inhibition of JAK2 enzyme in cell culture, Western blot assays may also be performed. For this, cells which have been treated with a potential JAK2 inhibitor are lysed with a buffer specific for the isolation and preservation of proteins (1% Nonidet P-40, 120 mM NaCl, 30 mM Tris pH 7.4, 1:100 Protease Inhibitor Cocktail III [Calbiochem/EMD Biosciences], 1:100 Phosphatase Inhibitor Cocktail 1 [Sigma-Aldrich, Saint Louis, Mo.], 1:100 Phosphatase Inhibitor Cocktail 2 [Sigma-Aldrich, Saint Louis, Mo.]). The protein concentration in these lysates is then quantified using the BCA Protein Assay Kit (Pierce). Known amounts of protein, e.g. 50 ug, are loaded onto 10% SDS-polyacrylamide gels and are subjected to reducing, denaturing SDS-PAGE. Electrophoresed proteins are transferred to a nitrocellulose membrane, which is then probed with antibodies to STAT5, pSTAT5 (Tyr 694), STAT3, and pSTAT3 (Tyr 705). As STAT5 and STAT3, at Tyrosine 694 and Tyrosine 705 respectively, are substrates for JAK2, measuring the amount of phosphorylation at these sites in treated cells provides a means by which to evaluate the efficacy of JAK2 inhibitors.
Briefly, HEL cells were plated in 25 cm^2 tissue culture flasks and incubated in the presence of varying concentrations of Compound Nos. 1 or 2 for 24 hours. Following incubation, cells were lysed and total protein isolated and quantified. 50 μg of total protein was electrophoresed and transferred to nitrocellulose membrane, at which point Western Blot analysis was performed using an antibody to STAT5-phospho-Y694. Comparisons to total STAT5 were made. Densitometry analysis was performed in order to quantify the amount of STAT5 phosphorylation in these treated cells.

The test system of assay [3] is various cancer cell lines. Kind of assay: Cell-Titer-Glo cell survival/proliferation assay. It counts as cell-based. The conditions noted are these: screened between 300 nM and 10 nM, read-out: IC50 from % survival (Cell-Titer-Glo). How it is done:
Cell culture-based assays can be used to evaluate the ability of compounds of the invention to inhibit one or more cellular activities, such as cancer cell growth and/or survival. Numerous cancer cell lines can be obtained from the American Type Culture Collection (ATCC) and other sources. Briefly, cells are seeded into 96-well, tissue-culture treated, opaque white plates (Thermo Electron, Vantaa, Finland), at between 600 and 14000 cells per well, depending on the speed of cell proliferation, in 100 ul of appropriate growth medium (determined by the ATCC). Cells are then exposed to the appropriate concentration of drug and allowed to grow in its presence for 96 hours. Following this, 100 ul of Cell-Titer-Glo reagent (Promega, Inc., Madison, Wis.) is added to each well. Plates are then shaken for 2 minutes at room temperature to allow for cell lysis and incubated for 10 minutes at room temperature to stabilize the luminescent signal. Similar to the Kinase-Glo assay reagent from Promega, this reagent contains both luciferase enzyme and its substrate luciferin. Luciferase, activated by ATP in the cell lysate, catalyzes the conversion of luciferin to oxyluciferin, a reaction which produces light. The amount of light produced is proportionate to the amount of ATP in the cell lysate, which is itself proportional to cell number and gives an index of cellular proliferation.
Compound Nos. 1-4, 1-7, 1-11 and 1-17 were screened at a dilution range between 300 nM and 10 nM as JAK2 inhibitors, with percent survival being determined using the Cell-Titer-Glo Assay.

The next assay has as its target T3, JAK2 V617F (Homo sapiens, UniProt O60674, V617F).
T3 construct: These enzymes include both the JH1 and JH2 homology regions of the protein; purchased Invitrogen Corporation (SelectScreen assay service, Carlsbad, Calif.)
The experiment in a line: Invitrogen SelectScreen profiling, mutant JAK2. It counts as biochemical. The conditions noted are these: read-out: IC50 against mutant JAK2 V617F (SelectScreen).
Description: as §1

Assay [4] has as its target T1, JAK2 kinase. The experiment in a line: Radiometric IC50Profiler assay (Millipore-Upstate). The conditions noted are these: read-out: IC50 (IC50 Profiler data). Also noted: purchased Millipore-Upstate (KinaseProfiler / IC50Profiler assay service, Dundee, UK). It counts as biochemical. On the procedure:
Compounds may also be tested using a radiometric assay; namely, the KinaseProfiler™ and IC50Profiler™ assay services (Millipore-Upstate, Dundee, UK). Briefly, compounds are tested at a single concentration (for single-point screening) or at a number of concentrations (for IC50 determinations) against recombinant JAK2 enzyme in the presence of radiolabeled ATP.

Assay [5] concerns nuclear STAT3 in AGS gastric cancer cells. The experiment in a line: STAT3 nuclear translocation high-content assay (STAT3 HitKit, ArrayScan VTi). It counts as cell-based. How it is done: When STAT3 is phosphorylated by JAK2, it forms a homodimer and is translocated to the nucleus to effect transcription of a number of target genes involved in cell proliferation. AGS gastric cancer cells were inoculated onto 96 well plates, and incubated in the presence of 5 μM Compound 1-4 for 1, 5 or 24 hours. Following incubation, cells were stained using the STAT3 HitKit (Thermo-Fisher) and detected using the Molecular Translocation BioApplication on a ArrayScan VTi high-content screening instrument (Thermo-Fisher). Nuclei were pseudostained blue (Hoechst) and STAT3 was pseudostained green (FITC).
Nuclear STAT3 was reduced by greater than 50% 24 h after treatment with Compound 1-4 when compared with nuclear STAT3 levels in untreated samples.

Assay [6] has as its system STAT3-phospho-Y705 in AGS gastric cancer cell line. The experiment in a line: Western blot of STAT3 phosphorylation in AGS cells. It counts as cell-based. The conditions noted are these: 24 hours, 5-10 uM, Western blot densitometry. On the procedure:
as §2, with “Electrophoresed proteins are transferred to a nitrocellulose membrane, which is then probed with antibodies to STAT5, pSTAT5 (Tyr 694), STAT3, and pSTAT3 (Tyr 705). As STAT5 and STAT3, at Tyrosine 694 and Tyrosine 705 respectively, are substrates for JAK2, measuring the amount of phosphorylation at these sites in treated cells provides a means by which to evaluate the efficacy of JAK2 inhibitors.” left out
(§3) In this example, Compound 1-4 is shown to reduce the JAK2-dependent phosphorylation of STAT3 and STAT5 in the AGS gastric cancer cell line. […] Following incubation, cells were lysed and total protein isolated and quantified. […] Densitometry analysis was performed in order to quantify the amount of STAT3 and STAT5 phosphorylation in these treated cells. Phospho-STAT3 and phospho-STAT5 were compared to total STAT3 and STAT5 and the proportion of STAT phosphorylation relative to untreated controls was determined.
On the technique in general: Immunoblotting shows a protein as a band on a membrane.

Assay [7] has as its system STAT5-phospho-Y694 in AGS gastric cancer cell line. Kind of assay: Western blot of STAT5 phosphorylation in AGS cells. It counts as cell-based. As to conditions: 24 hours, 5-10 uM, Western blot densitometry. How it is done:
as §2, with “Electrophoresed proteins are transferred to a nitrocellulose membrane, which is then probed with antibodies to STAT5, pSTAT5 (Tyr 694), STAT3, and pSTAT3 (Tyr 705). As STAT5 and STAT3, at Tyrosine 694 and Tyrosine 705 respectively, are substrates for JAK2, measuring the amount of phosphorylation at these sites in treated cells provides a means by which to evaluate the efficacy of JAK2 inhibitors.” left out
as §3

Bounds are passed on as bounds.

T1 sequence (O60674 whole entry): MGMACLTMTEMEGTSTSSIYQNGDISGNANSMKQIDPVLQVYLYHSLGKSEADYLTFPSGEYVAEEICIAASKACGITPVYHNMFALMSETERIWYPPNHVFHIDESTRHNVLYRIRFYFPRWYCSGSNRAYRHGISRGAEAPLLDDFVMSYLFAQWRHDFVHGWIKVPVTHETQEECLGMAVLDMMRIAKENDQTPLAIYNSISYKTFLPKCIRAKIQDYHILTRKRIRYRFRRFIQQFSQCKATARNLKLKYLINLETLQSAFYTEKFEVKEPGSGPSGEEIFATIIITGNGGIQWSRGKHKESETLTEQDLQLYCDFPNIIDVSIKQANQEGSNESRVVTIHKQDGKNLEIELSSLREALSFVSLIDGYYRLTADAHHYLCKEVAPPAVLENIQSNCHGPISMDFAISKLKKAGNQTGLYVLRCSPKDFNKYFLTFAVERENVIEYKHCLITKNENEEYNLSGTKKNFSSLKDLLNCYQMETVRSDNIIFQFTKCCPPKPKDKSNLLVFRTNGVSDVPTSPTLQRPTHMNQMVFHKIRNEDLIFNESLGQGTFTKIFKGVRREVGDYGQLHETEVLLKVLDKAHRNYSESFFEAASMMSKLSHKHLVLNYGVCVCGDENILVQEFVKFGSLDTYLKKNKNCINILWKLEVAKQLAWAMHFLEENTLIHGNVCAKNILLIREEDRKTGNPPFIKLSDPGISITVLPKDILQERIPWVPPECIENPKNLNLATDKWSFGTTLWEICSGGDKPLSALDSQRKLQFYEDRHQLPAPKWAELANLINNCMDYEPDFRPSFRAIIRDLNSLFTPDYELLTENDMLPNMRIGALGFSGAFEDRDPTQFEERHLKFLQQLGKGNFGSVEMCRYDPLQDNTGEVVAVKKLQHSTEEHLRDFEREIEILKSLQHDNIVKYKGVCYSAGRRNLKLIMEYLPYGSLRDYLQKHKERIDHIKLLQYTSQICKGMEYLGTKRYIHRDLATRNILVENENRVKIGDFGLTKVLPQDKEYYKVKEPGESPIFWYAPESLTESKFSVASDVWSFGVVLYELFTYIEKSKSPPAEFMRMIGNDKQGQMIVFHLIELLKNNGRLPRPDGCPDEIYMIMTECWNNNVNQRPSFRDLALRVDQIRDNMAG
T3 sequence (O60674 532-1132 V617F limits assumed): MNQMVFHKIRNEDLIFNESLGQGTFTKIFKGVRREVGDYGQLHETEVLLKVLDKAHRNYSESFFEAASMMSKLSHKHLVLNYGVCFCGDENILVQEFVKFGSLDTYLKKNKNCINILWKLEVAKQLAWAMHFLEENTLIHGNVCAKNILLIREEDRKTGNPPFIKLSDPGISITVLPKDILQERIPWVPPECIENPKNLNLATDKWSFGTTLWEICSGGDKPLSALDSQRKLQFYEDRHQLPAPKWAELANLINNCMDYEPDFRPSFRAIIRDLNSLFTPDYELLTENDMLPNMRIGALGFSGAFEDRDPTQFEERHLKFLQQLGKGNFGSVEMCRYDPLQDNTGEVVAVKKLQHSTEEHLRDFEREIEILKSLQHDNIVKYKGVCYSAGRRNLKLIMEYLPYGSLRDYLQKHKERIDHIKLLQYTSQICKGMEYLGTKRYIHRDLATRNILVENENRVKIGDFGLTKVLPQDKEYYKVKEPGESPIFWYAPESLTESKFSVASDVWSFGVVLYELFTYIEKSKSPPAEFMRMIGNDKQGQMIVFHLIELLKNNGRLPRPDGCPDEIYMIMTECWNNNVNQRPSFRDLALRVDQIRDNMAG
T2 sequence (O60674 532-1132 limits assumed): as the sequence (O60674 532-1132 V617F limits assumed) above, with F86V counted along it

As to `CN1CCN(c2ccc(Nc3nccc(Nc4cccc(CC#N)c4)n3)cc2F)CC1` [Compound 1-11, 2-(3-(2-(3-Fluoro-4-(4-methylpiperazin-1-yl)phenylamino)pyrimidin-4-ylamino)phenyl)acetonitrile], the IC50 – broadly, the midpoint of a concentration-inhibition curve – was < 1000 nM at JAK2 kinase [1]; < 1000 nM on JAK2 WT; < 10 nM in assay [3]; < 1000 nM at JAK2 V617F; < 1000 nM on JAK2 kinase [4]. Also, in [2], the EC50 (in general, the concentration that produces a half-maximal response) stood at 65.8 nM.

Consider `CN1CCN(c2ccc(Nc3nccc(Nc4ccc(F)c(Cl)c4)n3)cc2)CC1` [Compound 1-4, N4-(3-chloro-4-fluorophenyl)-N2-(4-(4-methylpiperazin-1-yl)phenyl)pyrimidine-2,4-diamine], for which the IC50 on JAK2 kinase [1] was < 1000 nM; on JAK2 WT, < 1000 nM; in assay [3], < 10 nM; at JAK2 V617F, < 1000 nM; at JAK2 kinase [4] it was < 1000 nM. Also, the STAT3 staining localisation result in assay [5] (5 μM, 1, 5 or 24 hours) is given as “confined outside the nucleus”. Moreover, the “Reduction of nuclear STAT3 compared with untreated samples” value in [5] (5 μM, 24 h after treatment) was “greater than 50%”. Further, the “STAT3 phosphorylation relative to untreated controls” value in assay [6] is given as “reduced levels”. Moreover, the “STAT5 phosphorylation relative to untreated controls” value in [7] is “reduced levels”. Further, in [2], the EC50 stood at 299 nM.

Consider `CN1CCN(c2ccc(Nc3nccc(Nc4cccc(CC#N)c4)n3)cc2)CC1` [Compound 1-7, 2-(3-(2-(4-(4-Methylpiperazin-1-yl)phenylamino)pyrimidin-4-ylamino)phenyl)acetonitrile], for which the IC50 on JAK2 kinase [1] is < 1000 nM; at JAK2 WT it was < 1000 nM; in [3], < 10 nM; at JAK2 V617F it was < 1000 nM; at JAK2 kinase [4], < 1000 nM. Besides, the EC50 in assay [2] amounted to 4 nM.

For the molecule `CN1CCN(C(=O)c2ccc(Nc3nccc(Nc4cccc(CC#N)c4)n3)cc2)CC1` [Compound 1-17, 2-(3-(2-(4-(4-methylpiperazine-1-carbonyl)phenylamino)pyrimidin-4-ylamino)phenyl)acetonitrile], the IC50 on JAK2 kinase [1] was < 1000 nM; at JAK2 WT, < 1000 nM; in assay [3], < 10 nM; at JAK2 V617F, < 1000 nM; at JAK2 kinase [4] it was < 1000 nM. Further, in assay [2], the EC50 stood at 266 nM.
